Values quoted from earlier work in US20180116952A1, “ORAL PHARMACEUTICAL COMPOSITION OF METHYL[…] METHODS OF USE THEREOF” (Lupin Atlantis Holdings SA, priority 2015, published 2018).

Test system: patients with drug-induced refractory headache
Settings: 60 consecutive patients with drug-induced refractory headache

CCC(CO)NC(=O)[C@@H]1C=C2c3cccc4[nH]cc(c34)C[C@H]2N(C)C1.O=C(O)/C=C\C(=O)O (stereo partly shown) [methylergonovine, methylergonovine maleate]
patients in whom methylergonovine was effective: 73%
